For one assay, the system named is human T2R receptor. The settings on record: functions as a bitter substance; cited from earlier work.
Assay [1] relates to scopolamine-induced amnesia. Kind of assay: Y-shaped maze test, prophylactic activity against scopolamine-induced amnesia. The format is in vivo. Particulars: male ddY mice, scopolamine 1 mg/kg s.c. 30 min before test. The text has this:
The effect in improving brain function of the composition of the present invention, or the peptide the peptide Pro-Val-Arg-Gly-Pro-Phe-Pro-Ile-Ile-Val (SEQ ID NO: 2) or the peptide Val-Arg-Gly-Pro-Phe-Pro-Ile-Ile-Val (SEQ ID NO: 1) may be confirmed using a system based on an evaluation system for therapeutic drugs against Alzheimer's disease, the system using a Y-shaped maze test, for example. Specifically, a muscarinic receptor antagonist, such as scopolamine, may be used on a rat or a mouse so as to cause a hypofunction of the cholinergic neurons. Then, either the rat or the mouse may be administered with a drug, which induces amnesia by causing brain dysfunction, by itself, or the composition of the present invention, the peptide Pro-Val-Arg-Gly-Pro-Phe-Pro-Ile-Ile-Val (SEQ ID NO: 2) or the peptide Val-Arg-Gly-Pro-Phe-Pro-Ile-Ile-Val (SEQ ID NO: 1) together with such a drug, or the rat or the mouse may be administered, prior to the administration of such a drug, with the composition of the present invention, the peptide Pro-Val-Arg-Gly-Pro-Phe-Pro-Ile-Ile-Val (SEQ ID NO: 2) or the peptide Val-Arg-Gly-Pro-Phe-Pro-Ile-Ile-Val (SEQ ID NO: 1). Then, the mouse or the rat may be subjected to a test using a Y-shaped maze so that the prophylactic actions against amnesia of the composition of the present invention may be confirmed by using the percentage of change in spontaneous alternation behavior to different arms and the total number of entries into the maze as indicators.
Male mice (n=15 to 30) of the ddY strain (approximately 7-week old) were used, and they took food and water ad lib. Test substances used were 3 nmol/kg weight (3 μg/kg weight) and 30 nmol/kg weight (30 μg/kg weight) of Pro-Val-Arg-Gly-Pro-Phe-Pro-Ile-Ile-Val (SEO ID NO: 2). The test substances were administered to the mice once orally 60 minutes before the execution of a Y-shaped maze test for evaluation of spontaneous alternation behavior. […] The sequence of the arms each of the mice entered was recorded. The number of entries by each of the mice for each of the arms during the measurement time was counted to be the total number of entries. […] The percentage of spontaneous alternation behavior was calculated by dividing the number of spontaneous alternation behavior by a number obtained by subtracting 2 from the total number of entries, and multiplying a resultant number by 100. […] The measured values were expressed in the form of mean±standard error for each group. A significant difference between the control group and the scopolamine control group was calculated using Student's t-test. Further, a significant difference between the scopolamine control group and the PVRGPFPIIV (SEQ ID NO: 2)-administered group was calculated using Dunnett's multiple comparison test after one-way analysis of variance. […]

Setting [2] is: Example 2, 3 nmol/kg weight (3 μg/kg) once orally 60 min before test.

Regarding “PVRGPFPIIV (Synthetic functional peptide) [Pro-Val-Arg-Gly-Pro-Phe-Pro-Ile-Ile-Val]”, the “binding to human T2R receptor (receptor for bitter substances)” value in the assay on human T2R receptor is recorded as “binds to a human T2R receptor”. Moreover, the “prophylactic activity against amnesia (percentage of spontaneous alternation behavior)” value is “had a prophylactic activity against amnesia” in assay [1] (Example 1, 3 nmol/kg weight to 30 nmol/kg weight (3 μg/kg to 30 μg/kg) once orally 60 min before test) and “had a prophylactic activity against amnesia” in assay [1] (setting [2]). In the case of “RGPFPIIV (Synthetic comparative example peptide) [Arg-Gly-Pro-Phe-Pro-Ile-Ile-Val]”, the “prophylactic activity against amnesia (percentage of spontaneous alternation behavior)” value in assay [1] (setting [2]) is on record as “did not show any activity”. In the case of “VRGPFPIIV (Synthetic functional peptide) [Val-Arg-Gly-Pro-Phe-Pro-Ile-Ile-Val]”, the “prophylactic activity against amnesia (percentage of spontaneous alternation behavior)” value in assay [1] (setting [2]) is “had a prophylactic activity against amnesia”.

Values taken from patent US8343924B2, “Composition for improving brain function and method for improving brain function” (Calpis Co., Ltd., priority 2009, dated 2013).
